Read-outs that look alike come from different tables or passages of the source.
Experiments:
Z-138 [1] = assay: Combination with BO-1055, MCL (Tables 28, 29); type: cell-based, human
Granta = assay: Combination with BO-1055, MCL (Tables 28, 29); type: cell-based, human
REC-1 = assay: Combination with BO-1055, MCL (Tables 28, 29); type: cell-based, human
Mino [2] = assay: Combination with BO-1055, MCL (Tables 28, 29); type: cell-based, human
NECB1 = assay: Combination with BO-1055, MCL (Tables 28, 29); type: cell-based, human
Toledo = settings: human
Description: (§1) After 72 hours, the cultures were pulsed with Alamar Blue overnight, and the fluorescent intensity of resulted cultures was measured by a Synergy H1 plate-reader (BioTek Inc).

HBL1 = settings: human
Description: as §1

U2932 = settings: human
Description: as §1

Ly19 = assay: cells; settings: Homo sapiens, read-out: cytotoxicity IC50
Farage = assay: cells; settings: Homo sapiens, read-out: cytotoxicity IC50
hERG = hERG (Homo sapiens, UniProt Q12809); assay: in vitro
hERG, sequence (Q12809 whole entry): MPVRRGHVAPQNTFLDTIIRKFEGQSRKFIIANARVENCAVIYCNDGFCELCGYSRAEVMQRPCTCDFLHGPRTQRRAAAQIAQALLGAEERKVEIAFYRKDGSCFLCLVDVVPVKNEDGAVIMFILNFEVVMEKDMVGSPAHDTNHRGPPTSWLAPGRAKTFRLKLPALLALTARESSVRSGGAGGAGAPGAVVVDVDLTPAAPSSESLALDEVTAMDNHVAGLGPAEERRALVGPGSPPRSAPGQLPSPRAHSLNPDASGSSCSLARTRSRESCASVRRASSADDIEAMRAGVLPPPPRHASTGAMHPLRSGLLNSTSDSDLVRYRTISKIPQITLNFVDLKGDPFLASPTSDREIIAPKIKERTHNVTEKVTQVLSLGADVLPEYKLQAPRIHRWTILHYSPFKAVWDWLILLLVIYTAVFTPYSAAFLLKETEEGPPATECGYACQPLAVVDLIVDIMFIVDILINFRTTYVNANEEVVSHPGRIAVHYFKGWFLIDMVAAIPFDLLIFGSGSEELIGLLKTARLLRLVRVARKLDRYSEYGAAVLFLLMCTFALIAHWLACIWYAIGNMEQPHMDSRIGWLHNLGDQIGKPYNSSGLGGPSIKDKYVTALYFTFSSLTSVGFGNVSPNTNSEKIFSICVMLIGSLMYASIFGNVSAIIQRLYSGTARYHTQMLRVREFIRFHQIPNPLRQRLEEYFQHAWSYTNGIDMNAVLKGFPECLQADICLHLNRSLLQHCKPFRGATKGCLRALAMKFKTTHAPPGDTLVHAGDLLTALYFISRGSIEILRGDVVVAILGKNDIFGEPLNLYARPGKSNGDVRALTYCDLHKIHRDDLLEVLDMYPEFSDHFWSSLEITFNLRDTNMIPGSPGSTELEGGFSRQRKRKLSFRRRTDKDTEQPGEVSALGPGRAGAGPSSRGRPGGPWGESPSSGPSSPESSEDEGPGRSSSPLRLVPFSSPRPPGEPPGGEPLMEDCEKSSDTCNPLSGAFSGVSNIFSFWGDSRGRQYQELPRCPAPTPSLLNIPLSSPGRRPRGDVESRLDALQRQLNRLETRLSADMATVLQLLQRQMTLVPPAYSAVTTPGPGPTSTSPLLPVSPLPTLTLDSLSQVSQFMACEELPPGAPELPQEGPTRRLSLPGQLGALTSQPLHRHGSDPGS

Ly18 = assay: Cytotoxicity DLBCL; settings: read-out: cytotoxicity IC50; LY18, DLBCL GCB
Description: as §1

A204 rhabdomyosarcoma = assay: Cytotoxicity sarcoma; settings: read-out: cytotoxic activity (IC50), A204 (rhabdoid?)
Description: as §1

SUDHL-5 = assay: Cytotoxicity DLBCL; settings: read-out: cytotoxicity IC50; SUDHL-5, DLBCL GCB
JEKO-1 [3] = assay: Cytotoxicity mantle cell lymphoma
Description: as §1

Z-138 [4] = assay: Cytotoxicity mantle cell lymphoma; settings: read-out: cytotoxicity IC50, Z-138, mantle cell lymphoma
Description: as §1

NECB-1 = assay: Cytotoxicity mantle cell lymphoma
Description: as §1

[5] = rat
in vitro = settings: rat, microsomes
Mino [6] = assay: Cytotoxicity mantle cell lymphoma; settings: human, Mino mantle cell lymphoma cells, 72 h
Description: as §1

Granta-519 [7] = assay: Cytotoxicity mantle cell lymphoma; settings: human, Granta-519 mantle cell lymphoma cells, 72 h
Description: as §1

Mino [8] = system: Mino
Description: as §1

Granta-519 [9] = system: Granta-519
Description: as §1

LY1 = settings: human
Description: as §1

Ly3 (OCI-LY3) = settings: human
Description: as §1

[10] = system: spontaneous murine B-cell lymphoma; settings: mouse
MS-5 adult BM stroma = assay: Cytotoxicity normal tissue 72 hr; type: cell-based, mouse; settings: MS-5 (mouse), 72 hr; listed as TMZ; read-out: IC50
CV1 renal fibroblasts = assay: Cytotoxicity normal tissue 72 hr; type: cell-based, African green monkey (Cercopithecus aethiops); settings: Chlorocebus sabaeus, Fibroblast
[11] = system: normal human, murine or primate cell and tissue types; assay: Cytotoxicity, panel of normal tissues (MTT, alamar blue); type: cell-based; settings: 5 highly drug resistant normal tissues
[12] = system: Rhabdomyosarcoma cell lines; assay: Cytotoxicity, sarcoma panel (Table 30); type: cell-based; settings: Homo sapiens, 5/6 rhabdomyosarcoma lines
[13] = system: nude mice bearing prostate 22Rv/HL2 tumor xenografts; settings: mouse, in vivo
[14] = system: nude mice bearing prostate 22Rv/HL2; settings: mouse, in vivo
[15] = system: nude mice bearing prostate 22Rv/HL2; settings: mouse, in vivo; remark: listed apart in the source
H889 = assay: Cytotoxicity SCLC 72 hr alamar blue; type: cell-based, human; settings: Homo sapiens, NCI-H889, 72 h
[16] = system: BCI-NSI hTERT bronchial epithelium; assay: Cytotoxicity normal tissue 72 hr; type: cell-based, human
[17] = system: HUVEC umbilical endothelium; assay: Cytotoxicity normal tissue 72 hr; type: cell-based, human
MA-10-W51 = assay: Cytotoxicity leukemia; type: cell-based, human; settings: growth factor dependent MA-10-W51
Source text: Human cord blood CD34+ cells transduced with MLL-AF9 gene: MA-10, MA-18. Human bone marrow CD34+ cells transduced with MLL-AF9 gene: MA-23. Human cord blood CD34+ cells transduced with MLL-AF9 and N-ras genes: MA-9.3, […] ).

FBMC fetal BM stroma = assay: Cytotoxicity normal tissue 72 hr; type: cell-based; settings: Homo sapiens
[18] = system: FTE-hTERT Fallopian epithelium; assay: Cytotoxicity normal tissue 72 hr; type: cell-based, human
BMMSC BM mesenchyme = assay: Cytotoxicity normal tissue 72 hr; type: cell-based, human
[19] = system: primary patient Ewing's sarcoma xenograft in NSG mice; assay: Cyclophosphamide-resistant primary Ewing's sarcoma xenograft; type: in vivo, mouse; settings: cyclophosphamide 70 mg/kg i.p. x3, then BO-1055 30 mg/kg iv x4
JEKO-1 [20] = settings: human
Description: as §1

[21] = read-out: cytotoxicity IC50, NECB-1, mantle cell lymphoma

Description for Ly10: as §1
Description for Ly8: as §1
Description for Pfeiffer: as §1
Description for SUDHL-4: as §1
Description for SUDHL-6: as §1

SMILES: COc1cccc2c1C(=O)c1c(O)c3c(c(O)c1C2=O)C[C@@](O)(C(=O)CO)C[C@@H]3O[C@H]1C[C@H](N)[C@H](O)[C@H](C)O1 [Doxorubicin]
- interaction with BO-1055 (Z-138 [1]): both combinations were synergistic
- interaction with BO-1055 (Granta): synergistic with combo-1 and antagonistic against combo-2
- interaction with BO-1055 (REC-1): both combinations were antagonistic
- interaction with BO-1055 (Mino [2]): both combinations were synergistic
- interaction with BO-1055 (NECB1): synergistic with combo-1 and antagonistic against combo-2
- IC50 (Ly10; human): 0.084 µM
- IC50 (SUDHL-6; human): 0.195 µM
- IC50 (Pfeiffer; human): 0.061 µM
- IC50 (Toledo): > 10 µM
- IC50 (HBL1): 0.211 µM
- IC50 (U2932): 0.05 µM
- IC50 (Ly19): 0.121 µM
- IC50 (Farage): 0.273 µM
- IC50 (hERG): 0.03 ± 0.03 µM
- IC50 (Ly18): 0.097 µM
- IC50 (A204 rhabdomyosarcoma): 0.011 µM
- IC50 (SUDHL-5): 0.912 µM
- IC50 (JEKO-1 [3]): 0.05 µM
- IC50 (Z-138 [4]): 0.033 µM
- IC50 (Z-138 [4]; listed as Doxo): 0.34 µM
- IC50 (NECB-1; [21]): 0.163 µM
- IC50 (NECB-1; read-out: cytotoxicity IC50, NECB-1, mantle cell lymphoma, listed as Doxo): 1.23 µM

SMILES: CCOc1ccc2ccc(=O)oc2c1 [7-EC, 7-Ethoxycoumarin]
- MR (metabolic rate) [5]: 0.0448 nmol/min/mg
- % Remaining at 60 min ([5]; microsomes, 1 h): 18%
- Microsome stability, standards ([5]; microsomes, 1 h): High standard = 95%
- Microsome stability, turnover ([5]; microsomes, 1 h): 7-EC ≥ 82%)
- half-life (in vitro): 23.5 min

SMILES: Cc1[nH]c2ccccc2c1CCNCc1ccc(/C=C/C(=O)NO)cc1 [Panobinostat]
- IC50 (JEKO-1 [3]; human, JEKO-1 mantle cell lymphoma cells, 72 h): 0.21 µM
- IC50 (Mino [6]): 0.291 µM
- IC50 (Granta-519 [7]): 0.041 µM
- IC50 (NECB-1; human, NECB-1 mantle cell lymphoma cells, 72 h): 0.02 µM

SMILES: CC(C)C[C@H](NC(=O)[C@H](Cc1ccccc1)NC(=O)c1cnccn1)B(O)O [velcade, Bortezomib]
- interaction with BO-1055 (Z-138 [1]): synergistic cytotoxic with both combinations
- interaction with BO-1055 (Granta): synergistic with combo-1 and antagonistic with combo-2
- interaction with BO-1055 (REC-1): antagonistic in both combinations
- interaction with BO-1055 (Mino [2]): synergistic cytotoxic with both combinations
- interaction with BO-1055 (NECB1): synergistic with combo-1 and antagonistic with combo-2
- IC50 (Mino [8]; human): 0.042 µM
- IC50 (Granta-519 [9]; human): 0.008 µM
- IC50 (LY1): 0.005 µM
- IC50 (Ly3 (OCI-LY3)): 0.021 µM
- IC50 (Ly8; human): 0.078 µM
- IC50 (SUDHL-4; human): 0.003 µM
- IC50 (SUDHL-6; human): 0.001 µM
- IC50 (Pfeiffer; human): 0.004 µM
- IC50 (Toledo): 0.108 µM
- IC50 (HBL1): 0.004 µM
- IC50 (U2932): 0.005 µM
- IC50 [10]: 0.006 µM
- IC50 (Ly18): 0.01 µM
- IC50 (SUDHL-5): 0.018 µM
- IC50 (NECB-1; [21]): 0.143 µM

SMILES: Cn1nnc2c(C(N)=O)ncn2c1=O [Temozolomide]
- IC50 (MS-5 adult BM stroma): 5.59 µM
- IC50 (CV1 renal fibroblasts; CV1 primate, 72 hr, read-out: IC50): > 100 µM
- IC50 [11]: ≥ 20 µM
- IC50 [12]: ≥ 191 µM
- IC50 (A204 rhabdomyosarcoma): 569 µM

SMILES: CC(=O)O[C@@]12CO[C@@H]1C[C@H](O)[C@@]1(C)C(=O)[C@H](O)C3=C(C)[C@@H](OC(=O)[C@H](O)[C@@H](NC(=O)OC(C)(C)C)c4ccccc4)C[C@@](O)([C@@H](OC(=O)c4ccccc4)[C@H]21)C3(C)C [Docetaxel]
- pathological change in heart, liver, spleen, lung and kidney [13]: no apparent pathological change
- ALT [14]: 54.08 U/L
- AST [14]: 108.60 U/L
- BUN [14]: 21.93 mg/dL
- CREA [14]: 0.32 mg/dL
- UA [14]: 3.60 mg/dL
- BASO [15]: 0.08 10^3/μL
- EOS [15]: 0.12 10^3/μL
- LYM [15]: 0.66 10^3/μL
- MONO [15]: 0.04 10^3/μL
- NEU [15]: 1.34 10^3/μL
- PLT [15]: 308 10^3/μL
- RBC [15]: 7.55 10^6/μL
- WBC [15]: 2.49 10^3/μL

SMILES: COc1cc([C@@H]2c3cc4c(cc3[C@@H](O[C@@H]3O[C@@H]5CO[C@@H](C)O[C@H]5[C@H](O)[C@H]3O)[C@H]3COC(=O)[C@H]23)OCO4)cc(OC)c1O [Etoposide]
- IC50 (JEKO-1 [3]): 0.78 µM

SMILES: O=NN(CCCl)C(=O)NCCCl [BCNU, BCNU/Carmustine]
- IC50 (H889): > 45 µM

SMILES: Cn1c(CCCC(=O)O)nc2cc(N(CCCl)CCCl)ccc21 [Bendamustine]
- IC50 [16]: 150 µM
- IC50 [17]: 150 µM
- IC50 (CV1 renal fibroblasts; 72 h): > 100 µM
- IC50 (JEKO-1 [3]): 6.25 µM

SMILES: CCc1c(CO)c(CO)c2n1Cc1c(c3ccccc3n1C)C2 [BO-1978]
- cytotoxicity, dose titration (FIG. 9) (MA-10-W51): highly cytotoxic, with BO-1978 more so than BO-1055

SMILES: CNC(=O)c1cc(Oc2ccc(NC(=O)Nc3ccc(Cl)c(C(F)(F)F)c3)cc2)ccn1 [SOR]
- IC50 (Mino [8]): ≥ 8 µM
- IC50 (Granta-519 [9]): ≥ 8 µM
- IC50 (Ly8): ≥ 8 µM
- IC50 (Ly10): ≥ 8 µM
- IC50 (SUDHL-4): 5.62 µM
- IC50 (SUDHL-6): ≥ 8 µM
- IC50 (Pfeiffer): 4.57 µM

SMILES: N[C@@H](Cc1ccc(N(CCCl)CCCl)cc1)C(=O)O [Melphalan]
- IC50 (FBMC fetal BM stroma): > 10 µM
- IC50 (JEKO-1 [3]): 1.1 µM

SMILES: CCc1c2c(nc3ccc(O)cc13)-c1cc3c(c(=O)n1C2)COC(=O)[C@]3(O)CC [SN-38]
- IC50 ([16]; read-out: IC50): 500 µM
- IC50 [18]: 2000 µM
- IC50 ([17]; read-out: IC50): 400 µM
- IC50 (BMMSC BM mesenchyme): 200 µM
- IC50 (JEKO-1 [3]): 0.8 µM

SMILES: O=P1(N(CCCl)CCCl)NCCCO1 (centres unmarked) [cyclophosphamide]
- tumor growth [19]: Tumor growth was not inhibited

SMILES: CC(=O)O[C@H]1C(=O)[C@@]2(C)[C@H]([C@H](OC(=O)c3ccccc3)[C@]3(O)C[C@H](OC(=O)[C@H](O)[C@@H](NC(=O)c4ccccc4)c4ccccc4)C(C)=C1C3(C)C)[C@]1(OC(C)=O)CO[C@@H]1C[C@@H]2O [Paclitaxel]
- IC50 (JEKO-1 [20]): 0.017 µM
- IC50 (Mino [8]; human): 0.025 µM
- IC50 (Granta-519 [9]; human): 0.049 µM
- IC50 (Z-138 [4]): 0.012 µM
- IC50 (NECB-1; [21]): 0.064 µM

SMILES: CC[C@]1(O)C[C@H]2CN(CCc3c([nH]c4ccccc34)[C@@](C(=O)OC)(c3cc4c(cc3OC)N(C=O)[C@H]3[C@@](O)(C(=O)OC)[C@H](OC(C)=O)[C@]5(CC)C=CCN6CC[C@]43[C@@H]65)C2)C1 [Vincristine]
- IC50 (JEKO-1 [3]; JEKO-1, 72 hr (Table 27)): 0.39 µM

— patent US20200246284A1 (Academia Sinica, priority 2015, published 2020)
